Earlier results on one substance are cited in patent US6486129B1, “Antithrombotic compounds” (Akzo Nobel N.V., priority 1998, dated 2002).

In this data set the target is thrombin (Homo sapiens, UniProt P00734). Particulars: background description of prior art.

As for “Nα-(2-naphthylsulfonyl)-glycyl-4-amidinophenylaianinpiperidide [NAPAP]”, the thrombin specificity result is given as “low thrombin specificity”.
